# Source: patent publication US20260183297A1, “SELECTION OF PATIENTS FOR THE TREATMENT OF FADS1-MEDIATED DISEASES OR DISORDERS USING FADS-1 INHIBITORS” (AMGEN INC., priority 2022, published 2026)
# Entries after “also recorded” stand apart in the source; their conditions may differ.
# How the values were obtained:
# mouse FADS1 = target: T1, mouse FADS1 (Mus musculus, UniProt Q920L1); assay: Mouse FADS1 cell-based assay; conditions: in vitro; read-out: half-maximal inhibitory concentration (IC50) against mouse FADS1
# T1 sequence (Q920L1 1-447): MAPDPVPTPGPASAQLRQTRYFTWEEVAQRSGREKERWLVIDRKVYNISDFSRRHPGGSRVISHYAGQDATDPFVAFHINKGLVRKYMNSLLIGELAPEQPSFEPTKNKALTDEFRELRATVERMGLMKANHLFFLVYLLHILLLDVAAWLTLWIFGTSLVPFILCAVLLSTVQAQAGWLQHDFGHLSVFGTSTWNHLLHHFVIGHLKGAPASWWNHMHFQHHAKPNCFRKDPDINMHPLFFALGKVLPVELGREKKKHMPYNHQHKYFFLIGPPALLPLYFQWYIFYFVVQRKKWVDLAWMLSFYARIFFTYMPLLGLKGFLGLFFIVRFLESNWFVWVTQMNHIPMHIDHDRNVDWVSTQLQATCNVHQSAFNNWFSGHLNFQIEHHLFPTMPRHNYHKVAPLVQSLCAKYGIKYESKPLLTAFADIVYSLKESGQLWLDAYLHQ
# Experimental: HEK 293 cells in Dulbecco's Modified Eagle's medium (DMEM), 10% fetal bovine serum (FBS), 1× penicillin-streptomycin-glutamine (PSG) were mixed with FADS1 BacMam or FADS2 BacMam reagents at multiplicity of infection (MOI) ratio of 25 and plated in a in 96-well poly-D-lysine-coated plate. Plates were incubated in a 37° C., 5% CO2 for 24 hours. Cells were washed with DPBS and cells were incubated with […] of compound dilution in DPBS at 5% CO2, 37° C. for 20 minutes. Ten L of the substrate, ^13C5-DGLA (FADS1), or 13C-LA (FADS2) diluted in DPBS were added to the cells and incubated at 5% CO2, 37° C. for 30 minutes (FADS1) or 45 minutes (FADS2). Cells were then washed with DPBS and 50 μL of 2N NaOH were added to each well and incubated in a 65° C. oven for 1 hour for the saponification reaction. After cooling to room temperature, 22 μl of formic acid was added followed by the addition of 113 μl of acetonitrile with 1.5 μM ALA-d14 as the internal standard. Samples were then subjected to LC-MS/MS detection for the following analytes for the FADS1 reaction: ^13C5-DGLA and ^13C5-AA or the following analytes for the FADS2 reaction: ^13C18-LA, ^13C18-GLA, ^13C18-DGLA and ^13C18-AA. […]
# The analyte peak areas were quantified by using the Analyst software (SCIEX, Framingham, MA). The percent of substrate to product conversion relative to untreated control were calculated (percent of control [POC]). […]
# [1] = Liver histology assessment (H&E, Oil-red-O); assay type: in vivo, mouse; conditions: WT DIO mice, 10 mg/kg, 24 days, compared to WT vehicle
# [2] = Plasma lipid, glucose, insulin and metabolic profile measurements in DIO mice; assay type: in vivo, mouse; conditions: for Alanine Aminotransferase / Cholesterol / HDL-Cholesterol / Insulin / LDL-Cholesterol / Non-esterified fatty acids / Triglycerides: DIO mice plasma; for Alanine Aminotransferase / Cholesterol / HDL-Cholesterol / Insulin / LDL-Cholesterol / Non-esterified fatty acids / Triglycerides / C-reactive Protein / Glucose / Serum Amyloid A: mean ± SD
# Experimental: Body weight was measured daily and used for dosing calculations. A 4-hour fasted retro-orbital blood sample was collected at baseline and day 46 and used for insulin, cholesterol, and triglyceride analysis. A 3-day average food consumption was measured on days 39-41. All animals received 0.1 ml of 2 mM ^13C5-DGLA by IP injection 23.5 hours after the last PO gavage with the different treatment to allow for 30 minutes of exposure prior to necropsy to determine the residual in vivo FADS1 activity.
# Mice were bled consciously from the retro-orbital sinus, and blood was collected into EDTA plasma tubes. Plasma lipids were measured using the Olympus AU400e Chemistry Analyzer (Olympus America, Center Valley, PA). Plasma insulin was measured using the ALPCO mouse high range insulin ELISA (Alpco, Salem, NH). Blood glucose was measured using an AlphaTRAK blood glucometer (Zoetis, Parsippany, NJ).
# human FADS1 = target: T2, human FADS1 (Homo sapiens, UniProt O60427); assay: In vitro FADS1 activity assay (HEK 293 cells with FADS1 BacMam, 13C5-DGLA substrate); assay type: cell-based; conditions: in vitro; read-out: half-maximal inhibitory concentration (IC50) against human FADS1
# T2 construct: expressed in transfected cells; host or cells: HEK 293 cells transduced with FADS1 BacMam (MOI 25)
# T2 sequence (O60427 whole entry): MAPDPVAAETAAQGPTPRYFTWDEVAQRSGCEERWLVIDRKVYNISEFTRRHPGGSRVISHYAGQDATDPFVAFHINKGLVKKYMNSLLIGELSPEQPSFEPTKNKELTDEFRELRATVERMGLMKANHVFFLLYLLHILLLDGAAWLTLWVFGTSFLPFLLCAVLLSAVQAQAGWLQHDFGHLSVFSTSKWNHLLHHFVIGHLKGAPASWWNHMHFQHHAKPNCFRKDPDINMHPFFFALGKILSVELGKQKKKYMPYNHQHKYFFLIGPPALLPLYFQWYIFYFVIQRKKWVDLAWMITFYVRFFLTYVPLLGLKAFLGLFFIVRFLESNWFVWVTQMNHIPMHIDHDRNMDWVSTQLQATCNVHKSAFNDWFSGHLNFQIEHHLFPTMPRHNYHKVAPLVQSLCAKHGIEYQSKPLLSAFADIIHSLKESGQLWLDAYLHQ
# Experimental: HEK 293 cells in Dulbecco's Modified Eagle's medium (DMEM), 10% fetal bovine serum (FBS), 1× penicillin-streptomycin-glutamine (PSG) were mixed with FADS1 BacMam or FADS2 BacMam reagents at multiplicity of infection (MOI) ratio of 25 and plated in a in 96-well poly-D-lysine-coated plate. Plates were incubated in a 37° C., 5% CO2 for 24 hours. Cells were washed with DPBS and cells were incubated with 90 ml of compound dilution in DPBS at 5% CO2, 37° C. for 20 minutes. Ten L of the substrate, ^13C5-DGLA (FADS1), or 13C-LA (FADS2) diluted in DPBS were added to the cells and incubated at 5% CO2, 37° C. for 30 minutes (FADS1) or 45 minutes (FADS2). Cells were then washed with DPBS and 50 μL of 2N NaOH were added to each well and incubated in a 65° C. oven for 1 hour for the saponification reaction. […] Samples were then subjected to LC-MS/MS detection for the following analytes for the FADS1 reaction: ^13C5-DGLA and ^13C5-AA or the following analytes for the FADS2 reaction: ^13C18-LA, ^13C18-GLA, ^13C18-DGLA and ^13C18-AA. Samples were injected onto a Poroshell 120 EC-C18 3.0×50 mm, 1.9 um id column (Agilent, Santa Clara, CA).
# [3] = DIO mice, 10 mg kg^−1, 46 or 54 days
# [4] = DIO mice, 30 mg kg^−1, 46 or 54 days
# [5] = DIO mice, 10 and 30 mg/kg daily oral
compound,measurement,setting,value
"COc1ccn2c(=O)c(-c3cnn(CC(F)(F)C(F)(F)F)c3)c(C(F)(F)F)nc2c1 [Compound A, 8-methoxy-3-(1-(2,2,3,3,3-pentafluoropropyl)-1H-pyrazol-4-yl)-2-(trifluoromethyl)-4H-pyrido[1,2-a]pyrimidin-4-one]",IC50,mouse FADS1,4 nM
same,liver lipid content (Oil-red-O staining),[1],reduced lipid content
same,plasma liver enzyme alanine aminotransferase (ALT),[2]; Compound A-treated DIO mice,decreased
same,Alanine Aminotransferase,"[2]; 10 mg kg^−1, 46 or 54 days",142.8 ± 26.6 U L^−1
same,Cholesterol,"[2]; 10 mg kg^−1, 46 or 54 days",173.0 ± 11.9 mg/dL
same,HDL-Cholesterol,"[2]; 10 mg kg^−1, 46 or 54 days",86.4 ± 8.0 mg/dL
same,Insulin,"[2]; 10 mg kg^−1, 46 or 54 days",3.7 ± 3.2 ng/mL
same,LDL-Cholesterol,"[2]; 10 mg kg^−1, 46 or 54 days",22.4 ± 2.3 mg/dL
same,Non-esterified fatty acids,"[2]; 10 mg kg^−1, 46 or 54 days",0.9 ± 0.1 mEq L^−1
same,Triglycerides,"[2]; 10 mg kg^−1, 46 or 54 days",77.8 ± 13.7 mg/dL
same,Alanine Aminotransferase,"[2]; 30 mg kg^−1, 46 or 54 days",102.0 ± 32.4 U L^−1
same,Cholesterol,"[2]; 30 mg kg^−1, 46 or 54 days",165.3 ± 15.6 mg/dL
same,HDL-Cholesterol,"[2]; 30 mg kg^−1, 46 or 54 days",85.7 ± 5.5 mg/dL
same,Insulin,"[2]; 30 mg kg^−1, 46 or 54 days",2.2 ± 1.3 ng/mL
same,LDL-Cholesterol,"[2]; 30 mg kg^−1, 46 or 54 days",19.7 ± 2.5 mg/dL
same,Non-esterified fatty acids,"[2]; 30 mg kg^−1, 46 or 54 days",0.7 ± 0.1 mEq L^−1
same,Triglycerides,"[2]; 30 mg kg^−1, 46 or 54 days",63.3 ± 9.7 mg/dL
same,C-reactive Protein,[2]; [3],43.6 ± 9.7 µg/mL
same,Glucose,[2]; [3],170.3 ± 22.3 mg/dL
same,Serum Amyloid A,[2]; [3],5.2 ± 1.3 µg/mL
same,plasma insulin decrease vs vehicle,"[2]; DIO mice, 10 mg/kg daily oral",74.9%
same,C-reactive Protein,[2]; [4],37.1 ± 6.5 µg/mL
same,Glucose,[2]; [4],168.6 ± 23.2 mg/dL
same,Serum Amyloid A,[2]; [4],4.8 ± 1.8 µg/mL
same,lower plasma triglycerides vs vehicle,"[2]; DIO mice, 30 mg/kg daily oral",41.6%
same,plasma insulin decrease vs vehicle,"[2]; DIO mice, 30 mg/kg daily oral",84.7%
same,plasma cholesterol,[2]; [5],lowered; also recorded: trended lower
same,plasma triglycerides,[2]; [5],dose-dependent decreases
same,IC50,human FADS1,3 nM
